Laboratory results: the NIST ThermoML archive (doi:10.1016/j.fluid.2014.09.024)

What was measured:
[1] = for mass density: 101 kPa, Liquid, Vibrating tube method; for Normal melting temperature: Crystal, visual observation
[2] = refractive index (Na D-line) (dimensionless); conditions: 323.15 K; 101 kPa; Liquid; Standard Abbe refractometry
[3] = xn = mol fraction of the nth substance listed; conditions: 323.15 K, 101 kPa, Liquid, Vibrating tube method
[4] = refractive index (Na D-line) (dimensionless); xn = mol fraction of the nth substance listed; conditions: 323.15 K, 101 kPa, Liquid, Standard Abbe refractometry

COc1ccccc1 [anisole]
[1]
Conditions | mass density [kg/m3]
298.15 K | 989.42
323.15 K | 965.35

Conditions | Normal melting temperature [°C] | refractive index
[1] | -37.9 | –
[2] | – | 1.5012

COc1ccccc1 [anisole] + COC(=O)OC
Conditions | mass density, [3] [kg/m3] | refractive index, [4]
x2 = 0 | 965.35 | 1.5012
x2 = 0.05 | 967.83 | 1.4963
x2 = 0.1001 | 970.34 | 1.4908
x2 = 0.2001 | 975.5 | 1.4795
x2 = 0.3 | 980.89 | 1.4659
x2 = 0.4 | 986.63 | 1.4516
x2 = 0.5 | 992.69 | 1.437
x2 = 0.5999 | 999.08 | 1.4226
x2 = 0.7 | 1005.87 | 1.4087
x2 = 0.8 | 1013.1 | 1.393
x2 = 0.9 | 1020.95 | 1.3754
x2 = 0.95 | 1025.2 | 1.3655

COc1ccccc1 [anisole] + Oc1ccccc1
Conditions | mass density, [3] [kg/m3] | refractive index, [4]
x1 = 0.05 | 1044.95 | 1.535
x1 = 0.1001 | 1040.35 | 1.5333
x1 = 0.2 | 1031.27 | 1.5296
x1 = 0.3 | 1022.44 | 1.5259
x1 = 0.4 | 1013.68 | 1.522
x1 = 0.5 | 1005.11 | 1.5183
x1 = 0.6103 | 995.89 | 1.5144
x1 = 0.7 | 988.65 | 1.5114
x1 = 0.8 | 980.8 | 1.508
x1 = 0.9001 | 973.1 | 1.5047
x1 = 0.9498 | 969.31 | 1.503
x1 = 1 | 965.35 | 1.5012

COC(=O)OC [dimethyl carbonate]
[1]
Conditions | mass density [kg/m3]
298.15 K | 1063.26
323.15 K | 1029.81

Conditions | Normal melting temperature [°C] | refractive index
[1] | 5.1 | –
[2] | – | 1.3546

COC(=O)OC [dimethyl carbonate] + COc1ccccc1
x1 = 1
Conditions | mass density [kg/m3] | refractive index
[3] | 1029.81 | –
[4] | – | 1.3546

COC(=O)OC [dimethyl carbonate] + Oc1ccccc1
x1 = 1
Conditions | mass density [kg/m3] | refractive index
[3] | 1029.81 | –
[4] | – | 1.3546

Oc1ccccc1 [phenol]
[1]
Conditions | mass density [kg/m3]
313.15 K | 1058.51
323.15 K | 1049.8

Conditions | Normal melting temperature [°C] | refractive index
[1] | 41.0 | –
[2] | – | 1.5375

Oc1ccccc1 [phenol] + COC(=O)OC
Conditions | mass density, [3] [kg/m3] | refractive index, [4]
x2 = 0 | 1049.79 | 1.5375
x2 = 0.0469 | 1049.78 | 1.53
x2 = 0.1001 | 1049.78 | 1.5222
x2 = 0.2001 | 1049.38 | 1.5068
x2 = 0.3 | 1048.47 | 1.4912
x2 = 0.3999 | 1047.12 | 1.479
x2 = 0.5 | 1045.31 | 1.4698
x2 = 0.6 | 1043 | 1.4592
x2 = 0.7001 | 1040.26 | 1.4428
x2 = 0.8 | 1037.11 | 1.4169
x2 = 0.9 | 1033.66 | 1.384
x2 = 0.9499 | 1031.81 | 1.3675

Oc1ccccc1 [phenol] + COc1ccccc1
x2 = 0
Conditions | mass density [kg/m3] | refractive index
[3] | 1049.8 | –
[4] | – | 1.5375
